Some results are limits rather than exact numbers.

Results on 13 compounds are retold here after US20250304596A1, “PYRAZINE DERIVATIVES AND USES THEREOF” (FOGHORN THERAPEUTICS INC., priority 2022, published 2025).

One assay addresses T1, HiBit-BRM fusion protein (Homo sapiens, UniProt P51531).
T1 construct: expressed in transfected cells
Put plainly: HiBiT-BRM cell-based degradation assay (Nano-Glo HiBiT Lytic Detection, 24 h). The note with it: stable HeLa cell line expressing HiBiT-BRM; for DC50: read-out: BRM HiBit Degradation IC50. The gist of the method:
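Luminescence from LgBiT complementation after lysis measured HiBiT-BRM levels in stably expressing HeLa cells. Compounds were dosed at up to 30 μM final, in 3-fold 10-point dilutions, for 24 h. Percent degradation was scaled between DMSO wells and wells treated with 2 μM standard BRM/BRG1 degrader.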
In general terms: The HiBiT peptide binds its large partner to form an active luciferase.

In assay [1] the target is T2, HiBit-BRG1 fusion protein (Homo sapiens, UniProt P51532).
T2 construct: expressed in transfected cells
Put plainly: HiBiT-BRG1 cell-based degradation assay (Nano-Glo HiBiT Lytic Detection, 24 h). The note with it: stable HeLa cell line expressing HiBit-BRG1 and LgBit; for Dmax: read-out: BRG1 HiBit Degradation Maximum (%); for DC50: read-out: BRMG1 HiBit Degradation IC50. The gist of the method:
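Degradation read by lytic NanoBiT luminescence after 24 h compound exposure of a stable HiBit-BRG1/LgBit HeLa line. Ten-point, 3-fold series in duplicate, top final dose 30 μM; DMSO and 2 μM standard degrader define 0% and 100% degradation.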

T2 sequence (P51532 whole entry, the tested form may be a part): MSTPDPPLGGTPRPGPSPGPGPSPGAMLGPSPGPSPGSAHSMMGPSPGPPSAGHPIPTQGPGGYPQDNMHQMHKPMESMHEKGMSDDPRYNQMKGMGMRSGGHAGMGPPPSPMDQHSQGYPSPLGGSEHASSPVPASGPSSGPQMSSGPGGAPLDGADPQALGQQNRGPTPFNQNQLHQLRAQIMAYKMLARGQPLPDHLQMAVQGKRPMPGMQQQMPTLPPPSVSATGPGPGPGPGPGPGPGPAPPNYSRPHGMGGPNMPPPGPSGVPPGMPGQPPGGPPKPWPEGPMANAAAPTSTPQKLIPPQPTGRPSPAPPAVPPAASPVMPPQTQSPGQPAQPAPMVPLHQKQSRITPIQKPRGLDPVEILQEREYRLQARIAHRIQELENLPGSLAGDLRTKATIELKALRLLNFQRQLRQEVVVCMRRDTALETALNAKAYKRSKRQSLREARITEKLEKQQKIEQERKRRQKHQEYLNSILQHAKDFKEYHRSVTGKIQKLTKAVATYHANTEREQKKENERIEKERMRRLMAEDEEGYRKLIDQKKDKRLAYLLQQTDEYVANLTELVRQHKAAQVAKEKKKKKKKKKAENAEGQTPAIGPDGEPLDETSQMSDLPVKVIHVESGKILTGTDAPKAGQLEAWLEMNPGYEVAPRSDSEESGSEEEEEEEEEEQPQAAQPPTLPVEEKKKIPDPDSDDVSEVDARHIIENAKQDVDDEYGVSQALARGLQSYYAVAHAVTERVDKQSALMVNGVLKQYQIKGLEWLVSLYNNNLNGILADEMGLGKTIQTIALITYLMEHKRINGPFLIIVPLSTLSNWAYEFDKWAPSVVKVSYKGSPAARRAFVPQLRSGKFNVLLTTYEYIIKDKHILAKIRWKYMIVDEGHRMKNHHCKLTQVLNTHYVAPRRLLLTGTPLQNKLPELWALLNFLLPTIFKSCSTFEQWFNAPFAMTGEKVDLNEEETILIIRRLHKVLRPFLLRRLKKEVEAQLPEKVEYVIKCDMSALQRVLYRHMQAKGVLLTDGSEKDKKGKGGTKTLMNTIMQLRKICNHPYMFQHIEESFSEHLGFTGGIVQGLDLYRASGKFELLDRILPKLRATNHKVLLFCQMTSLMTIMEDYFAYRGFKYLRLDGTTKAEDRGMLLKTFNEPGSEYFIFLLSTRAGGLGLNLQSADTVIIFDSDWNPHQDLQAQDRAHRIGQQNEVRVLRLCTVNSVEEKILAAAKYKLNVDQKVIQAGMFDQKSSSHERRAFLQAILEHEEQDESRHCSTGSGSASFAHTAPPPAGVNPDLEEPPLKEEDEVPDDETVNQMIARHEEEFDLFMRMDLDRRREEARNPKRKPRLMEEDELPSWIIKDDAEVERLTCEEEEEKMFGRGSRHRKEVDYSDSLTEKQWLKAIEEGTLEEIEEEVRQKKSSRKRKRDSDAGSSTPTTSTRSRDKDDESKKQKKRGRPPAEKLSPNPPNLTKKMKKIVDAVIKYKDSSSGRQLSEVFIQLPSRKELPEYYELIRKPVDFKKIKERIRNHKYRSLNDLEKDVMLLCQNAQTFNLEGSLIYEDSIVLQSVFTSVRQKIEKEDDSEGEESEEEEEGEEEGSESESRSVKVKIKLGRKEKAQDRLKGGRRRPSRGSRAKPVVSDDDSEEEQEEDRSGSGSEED
T1 sequence (P51531 whole entry, the tested form may be a part): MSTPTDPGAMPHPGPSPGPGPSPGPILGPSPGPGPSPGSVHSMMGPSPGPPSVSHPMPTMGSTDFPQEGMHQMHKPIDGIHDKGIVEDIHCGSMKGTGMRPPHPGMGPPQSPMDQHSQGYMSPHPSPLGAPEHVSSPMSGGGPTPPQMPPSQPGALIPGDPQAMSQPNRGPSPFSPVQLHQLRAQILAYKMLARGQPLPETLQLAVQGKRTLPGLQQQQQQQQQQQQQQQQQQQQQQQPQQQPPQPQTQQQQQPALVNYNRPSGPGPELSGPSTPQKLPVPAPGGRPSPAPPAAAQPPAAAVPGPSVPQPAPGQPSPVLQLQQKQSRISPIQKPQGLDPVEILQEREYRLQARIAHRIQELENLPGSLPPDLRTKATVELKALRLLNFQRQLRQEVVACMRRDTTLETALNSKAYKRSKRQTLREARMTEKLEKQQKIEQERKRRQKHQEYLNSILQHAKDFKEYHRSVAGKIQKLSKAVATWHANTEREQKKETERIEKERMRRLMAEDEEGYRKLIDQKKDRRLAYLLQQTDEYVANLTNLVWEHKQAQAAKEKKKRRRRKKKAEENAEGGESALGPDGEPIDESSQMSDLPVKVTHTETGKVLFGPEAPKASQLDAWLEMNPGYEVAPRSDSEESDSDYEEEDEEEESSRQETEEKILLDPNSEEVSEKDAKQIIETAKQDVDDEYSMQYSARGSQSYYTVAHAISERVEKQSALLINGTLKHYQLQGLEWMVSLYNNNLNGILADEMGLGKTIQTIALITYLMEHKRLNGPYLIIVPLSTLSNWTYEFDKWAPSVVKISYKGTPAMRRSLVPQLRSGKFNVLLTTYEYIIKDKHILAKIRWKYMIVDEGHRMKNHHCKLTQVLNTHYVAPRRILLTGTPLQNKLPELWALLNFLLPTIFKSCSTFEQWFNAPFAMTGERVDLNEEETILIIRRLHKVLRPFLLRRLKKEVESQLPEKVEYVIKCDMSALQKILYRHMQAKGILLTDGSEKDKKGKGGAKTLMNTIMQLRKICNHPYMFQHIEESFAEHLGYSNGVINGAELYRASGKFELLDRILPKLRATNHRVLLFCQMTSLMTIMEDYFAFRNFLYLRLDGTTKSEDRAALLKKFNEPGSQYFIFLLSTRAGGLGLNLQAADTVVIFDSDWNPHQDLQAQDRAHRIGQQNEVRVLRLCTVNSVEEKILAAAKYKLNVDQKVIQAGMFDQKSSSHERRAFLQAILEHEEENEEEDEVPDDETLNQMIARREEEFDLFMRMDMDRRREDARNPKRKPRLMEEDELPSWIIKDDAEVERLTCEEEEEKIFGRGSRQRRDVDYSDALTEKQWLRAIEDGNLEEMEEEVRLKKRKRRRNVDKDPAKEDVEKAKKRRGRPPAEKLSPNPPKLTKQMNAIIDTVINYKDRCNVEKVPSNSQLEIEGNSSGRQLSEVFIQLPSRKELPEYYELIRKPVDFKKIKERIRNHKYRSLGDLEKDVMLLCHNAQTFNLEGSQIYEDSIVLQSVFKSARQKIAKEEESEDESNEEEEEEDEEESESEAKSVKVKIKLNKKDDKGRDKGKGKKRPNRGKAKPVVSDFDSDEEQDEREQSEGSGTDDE

Regarding `Cc1ncsc1-c1ccc([C@H](C)NC(=O)[C@@H]2C[C@@H](O)CN2C(=O)[C@@H](c2cc(-c3cnc(N4C[C@H]5C[C@@H]4C[C@H]5c4cc5cc(-c6ccccc6O)nnc5s4)nc3)no2)C(C)C)cc1` [Compound 13, (2S,4R)-4-hydroxy-1-((R)-2-(3-(2-((1R,4S,5R)-5-(3-(2-hydroxyphenyl)thieno[2,3-c]pyridazin-6-yl)-2-azabicyclo[2.2.1]heptan-2-yl)pyrimidin-5-yl)isoxazol-5-yl)-3-methylbutanoyl)-N-((S)-1-(4-(4-methylthiazol-5-yl)phenyl)ethyl)pyrrolidine-2-carboxamide], at HiBit-BRM fusion protein, the “BRM HiBit Degradation Maximum (%)” value is on record as “C (“C” indicates maximum degradation <50%)” and the DC50 is more than 1000 nM. In assay [1], the Dmax is less than 50% and the DC50 was more than 1000 nM.

For `Cc1ncsc1-c1ccc([C@H](C)NC(=O)[C@@H]2C[C@@H](O)CN2C(=O)[C@@H](c2cc(-c3cnc(NC45CC(c6sc7nnc(-c8ccccc8O)cc7c6C)(C4)C5)nc3)no2)C(C)C)cc1` [Compound 44, (2S,4R)-4-hydroxy-1-((R)-2-(3-(2-((3-(3-(2-hydroxyphenyl)-5-methylthieno[2,3-c]pyridazin-6-yl)bicyclo[1.1.1]pentan-1-yl)amino)pyrimidin-5-yl)isoxazol-5-yl)-3-methylbutanoyl)-N-((S)-1-(4-(4-methylthiazol-5-yl)phenyl)ethyl)pyrrolidine-2-carboxamide], at HiBit-BRM fusion protein, the “BRM HiBit Degradation Maximum (%)” value is “A (“A” indicates maximum degradation ≥75%)” and the DC50 was less than 10 nM. The Dmax in assay [1] was more than 75%.

Turning to `Cc1ncsc1-c1ccc([C@H](C)NC(=O)[C@@H]2C[C@@H](O)CN2C(=O)C(c2cc(Oc3nccc(N4CCC(c5sc6nnc(-c7ccccc7O)cc6c5C)CC4)n3)no2)C(C)C)cc1` (single isomer, unassigned) [Compound 61, (2S,4R)-4-hydroxy-1-[(2R*)-2-{3-[(4-{4-[3-(2-hydroxyphenyl)-5-methylthieno[2,3-c]pyridazin-6-yl]piperidin-1-yl}pyrimidin-2-yl)oxy]-1,2-oxazol-5-yl}-3-methylbutanoyl]-N-[(1S)-1-[4-(4-methyl-1,3-thiazol-5-yl)phenyl]ethyl]pyrrolidine-2-carboxamide], on HiBit-BRM fusion protein, the “BRM HiBit Degradation Maximum (%)” value is listed as “C (“C” indicates maximum degradation <50%)” and the DC50 was more than 1000 nM. In addition, in assay [1], the Dmax was less than 50% and the DC50 is more than 1000 nM.

Consider `Cc1ncsc1-c1ccc([C@H](C)NC(=O)[C@@H]2C[C@@H](O)CN2C(=O)[C@@H](c2cc(N3CC4(CC(c5sc6nnc(-c7ccccc7O)cc6c5C)C4)C3)no2)C(C)C)cc1` [Compound 23, (2S,4R)-4-hydroxy-1-((R)-2-(3-(6-(3-(2-hydroxyphenyl)-5-methylthieno[2,3-c]pyridazin-6-yl)-2-azaspiro[3.3]heptan-2-yl)isoxazol-5-yl)-3-methylbutanoyl)-N-((S)-1-(4-(4-methylthiazol-5-yl)phenyl)ethyl)pyrrolidine-2-carboxamide], for which, on HiBit-BRM fusion protein, the “BRM HiBit Degradation Maximum (%)” value is reported as “A (“A” indicates maximum degradation ≥75%)” and the DC50 is less than 10 nM. Further, in assay [1], the Dmax was less than 50% and the DC50 was more than 1000 nM.

`Cc1cc(-c2cc([C@H](C(=O)N3C[C@H](O)C[C@H]3C(=O)N[C@@H](C)c3ccc(-c4scnc4C)cc3)C(C)C)on2)cnc1N1CCC(c2sc3nnc(-c4ccccc4O)cc3c2C)CC1` [Compound 43, (2S,4R)-4-hydroxy-1-((R)-2-(3-(6-(4-(3-(2-hydroxyphenyl)-5-methylthieno[2,3-c]pyridazin-6-yl)piperidin-1-yl)-5-methylpyridin-3-yl)isoxazol-5-yl)-3-methylbutanoyl)-N-((S)-1-(4-(4-methylthiazol-5-yl)phenyl)ethyl)pyrrolidine-2-carboxamide]: at HiBit-BRM fusion protein, the “BRM HiBit Degradation Maximum (%)” value is “A (“A” indicates maximum degradation ≥75%)” and the DC50 was less than 10 nM. Besides, in assay [1], the Dmax is less than 50% and the DC50 was more than 1000 nM.

`Cc1ncsc1-c1ccc([C@H](C)NC(=O)[C@@H]2C[C@@H](O)CN2C(=O)[C@@H](c2cc(-c3cnc(N4CC[C@@H](c5cc6nnc(-c7ccccc7O)cc6s5)C4)nc3)no2)C(C)C)cc1` [Compound 82, (2S,4R)-4-hydroxy-1-((R)-2-(3-(2-((R)-3-(3-(2-hydroxyphenyl)thieno[3,2-c]pyridazin-6-yl)pyrrolidin-1-yl)pyrimidin-5-yl)isoxazol-5-yl)-3-methylbutanoyl)-N-((S)-1-(4-(4-methylthiazol-5-yl)phenyl)ethyl)pyrrolidine-2-carboxamide]: at HiBit-BRM fusion protein, the “BRM HiBit Degradation Maximum (%)” value is on record as “A (“A” indicates maximum degradation ≥75%)” and the DC50 is less than 10 nM. For the same compound, in assay [1], the Dmax was more than 50% and the DC50 is more than 10 nM.

Turning to `Cc1ncsc1-c1ccc([C@H](C)NC(=O)[C@@H]2C[C@@H](O)CN2C(=O)C(c2cc([C@H]3CC[C@H](c4cnc(N5CCC(c6sc7nnc(-c8ccccc8O)cc7c6C)CC5)nc4)CC3)no2)C(C)C)cc1` (stereo partly drawn) [Compound 64, (2S,4R)-4-hydroxy-1-((R)-2-(3-((1s,4S)-4-(2-(4-(3-(2-hydroxyphenyl)-5-methylthieno[2,3-c]pyridazin-6-yl)piperidin-1-yl)pyrimidin-5-yl)cyclohexyl)isoxazol-5-yl)-3-methylbutanoyl)-N—((S)-1-(4-(4-methylthiazol-5-yl)phenyl)ethyl)pyrrolidine-2-carboxamide], at HiBit-BRM fusion protein, the “BRM HiBit Degradation Maximum (%)” value is listed as “A (“A” indicates maximum degradation ≥75%)” and the DC50 was less than 10 nM. Besides, in assay [1], the Dmax is more than 75% and the DC50 is more than 10 nM.

Regarding `Cc1ncsc1-c1ccc([C@H](C)NC(=O)[C@@H]2C[C@@H](O)CN2C(=O)[C@@H](c2cc(-c3cnc(N4CC[C@H](c5sc6nnc(-c7ccccc7O)cc6c5C5CC5)C4)nc3)no2)C(C)C)cc1` [Compound 76, (2S,4R)-1-((R)-2-(3-(2-((S)-3-(5-cyclopropyl-3-(2-hydroxyphenyl)thieno[2,3-c]pyridazin-6-yl)pyrrolidin-1-yl)pyrimidin-5-yl)isoxazol-5-yl)-3-methylbutanoyl)-4-hydroxy-N-((S)-1-(4-(4-methylthiazol-5-yl)phenyl)ethyl)pyrrolidine-2-carboxamide], at HiBit-BRM fusion protein, the “BRM HiBit Degradation Maximum (%)” value is “A (“A” indicates maximum degradation ≥75%)” and the DC50 was less than 10 nM. Moreover, in assay [1], the Dmax was less than 50%.

Consider `Cc1ncsc1-c1ccc([C@H](C)NC(=O)[C@@H]2C[C@@H](O)CN2C(=O)[C@@H](c2cc(-c3cnc(CN4CCC(c5cc6cc(-c7ccccc7O)nnc6s5)CC4)nc3)no2)C(C)C)cc1` (single isomer, unassigned) [Compound 99], for which, on HiBit-BRM fusion protein, the “BRM HiBit Degradation Maximum (%)” value is “B (“B” indicates maximum degradation ≥50%)” and the DC50 was more than 10 nM. Further, the Dmax in assay [1] is less than 50%.

For `Cc1ncsc1-c1ccc([C@H](C)NC(=O)[C@@H]2C[C@@H](O)CN2C(=O)[C@@H](c2cc(-c3ccnc(N4CC[C@H](c5cc6nnc(-c7ccccc7O)cc6s5)C4)n3)no2)C(C)C)cc1` [Compound 86, (2S,4R)-4-hydroxy-1-((R)-2-(3-(2-((S)-3-(3-(2-hydroxyphenyl)thieno[3,2-c]pyridazin-6-yl)pyrrolidin-1-yl)pyrimidin-4-yl)isoxazol-5-yl)-3-methylbutanoyl)-N-((S)-1-(4-(4-methylthiazol-5-yl)phenyl)ethyl)pyrrolidine-2-carboxamide], at HiBit-BRM fusion protein, the “BRM HiBit Degradation Maximum (%)” value is “A (“A” indicates maximum degradation ≥75%)” and the DC50 was more than 100 nM. Further, the Dmax in assay [1] is less than 50%.

For `Cc1ncsc1-c1ccc([C@H](C)NC(=O)[C@@H]2C[C@@H](O)CN2C(=O)[C@@H](c2cc(-c3cnc(N4CC[C@H](c5cc6cc(-c7ccccc7O)nnc6s5)C4)nc3)no2)C(C)C)cc1` [Compound 6, (2S,4R)-4-hydroxy-1-((R)-2-(3-(2-((S)-3-(3-(2-hydroxyphenyl)thieno[2,3-c]pyridazin-6-yl)pyrrolidin-1-yl)pyrimidin-5-yl)isoxazol-5-yl)-3-methylbutanoyl)-N-((S)-1-(4-(4-methylthiazol-5-yl)phenyl)ethyl)pyrrolidine-2-carboxamide], on HiBit-BRM fusion protein, the “BRM HiBit Degradation Maximum (%)” value was “A (“A” indicates maximum degradation ≥75%)” and the DC50 was less than 10 nM. For the same compound, in assay [1], the Dmax is less than 50% and the DC50 is more than 1000 nM.

Consider `Cc1ncsc1-c1ccc([C@H](C)NC(=O)[C@@H]2C[C@@H](O)CN2C(=O)[C@@H](c2cc(-c3cnc(N4CC(c5sc6nnc(-c7ccccc7O)cc6c5C)C4)nc3)no2)C(C)C)cc1` (single isomer, unassigned) [Compound 63], for which, on HiBit-BRM fusion protein, the “BRM HiBit Degradation Maximum (%)” value is given as “A (“A” indicates maximum degradation ≥75%)” and the DC50 was less than 10 nM. For the same compound, in assay [1], the Dmax was less than 50% and the DC50 was more than 1000 nM.

With `Cc1ncsc1-c1ccc([C@H](C)NC(=O)[C@@H]2C[C@@H](O)CN2C(=O)[C@@H](c2cc(-c3cnc(N4CCC5(CC4)CC(c4sc6nnc(-c7ccccc7O)cc6c4C)C5)nc3)no2)C(C)C)cc1` [Compound 48, (2S,4R)-4-hydroxy-1-((R)-2-(3-(2-(2-(3-(2-hydroxyphenyl)-5-methylthieno[2,3-c]pyridazin-6-yl)-7-azaspiro[3.5]nonan-7-yl)pyrimidin-5-yl)isoxazol-5-yl)-3-methylbutanoyl)-N-((S)-1-(4-(4-methylthiazol-5-yl)phenyl)ethyl)pyrrolidine-2-carboxamide], on HiBit-BRM fusion protein, the “BRM HiBit Degradation Maximum (%)” value is reported as “A (“A” indicates maximum degradation ≥75%)” and the DC50 is more than 10 nM. Further, in assay [1], the Dmax is less than 50% and the DC50 is more than 1000 nM.
